≈ marks a conversion by molar mass, not a printed value.

For the series the following is noted: buffer; pH 7.4; 200.0 µM.
The term kinetic solubility denotes the concentration staying in solution when a stock, usually in DMSO, is diluted into the medium. Compound `O=C1COc2ccc(C(=O)C[n+]3cccc(O)c3)cc2N1.[Cl-]` showed a kinetic solubility above 48.1 µg/mL.

Take `Cc1cccc(N2CN=c3s/c(=C\c4ccccn4)c(=O)n3C2)c1`: the solubility (kinetic) was found to be 5.3 µg/mL (≈ 15.8 µM). Then `O=C(OCC(=O)c1ccccc1)C1=NN(c2ccccc2)C(=O)CC1`, with above 50.5 µg/mL; and `Cn1cc(C(=O)C(=O)NCCc2ccccc2)c2ccccc21`, with 0.6 µg/mL (≈ 1.96 µM). Next, `COc1ccc(C(C)NC(=O)C2CCCC2)cc1` (stereo unspecified): above 37.1 µg/mL; `CC(=O)c1ccc(NC(=O)C(C)Nc2ccc(Cl)cc2)cc1` (stereo unspecified): 40.9 µg/mL (≈ 129 µM). Then `CCN(c1ccccc1)S(=O)(=O)c1ccc(Oc2ccccc2C(C)=O)nc1`, with 18.6 µg/mL (≈ 46.9 µM); and `NC(=O)C1CCN(CC(O)CSc2ccccc2)CC1` (stereo unspecified), with above 44.2 µg/mL; and `O=C(Nc1ccc(NC(=O)c2ccccc2F)cn1)c1ccco1`, with 8.4 µg/mL (≈ 25.8 µM).

Compound `COc1ccc(C2=C(c3ccc([N+](=O)[O-])cc3)C(=O)OC2)cc1` returned a kinetic solubility of 3.4 µg/mL (≈ 10.9 µM). For `O=c1c2c([nH]c3ccccc13)CCCCC2`, the solubility (kinetic) was above 32 µg/mL. Consider `Nc1ccccc1C(=O)NCCN1CCNC1=O`, for which the kinetic solubility worked out at 14.2 µg/mL (≈ 57.2 µM). As for `COc1ccc(NCC(=O)N2CCCC2)cc1Cl`, the kinetic solubility came to 38 µg/mL (≈ 141 µM). As for `COc1cc2ccccc2cc1C(=O)Nc1ccc(C)cn1`, the solubility (kinetic) was below 0.3 µg/mL. Next, `Cc1c(CN2CCN(CC(C)(C)C)C(CCO)C2)[nH]c2ccccc12` (stereo unspecified): 45.1 µg/mL (≈ 131 µM); `CCNc1nc(=S)nc(NCc2ccccc2)[nH]1`: 4.6 µg/mL (≈ 17.6 µM). `Cc1ccc(C2NC(=O)c3ccccc3O2)cc1` (stereo unspecified) showed a kinetic solubility of 10.6 µg/mL (≈ 44.3 µM). This solubility kinetic is about 2.3-fold higher than that of the compound before. Regarding `O=C(NCCCN1CCCC1=O)c1cc(-c2ccc(F)cc2)nc2ccccc12`, the solubility (kinetic) was above 58.7 µg/mL.

As for `CC(CCc1ccccc1)NC(=O)CNC(=O)c1cccs1` (stereo unspecified), the solubility (kinetic) is above 47.5 µg/mL. Then `CC(C)(C)c1ccc(N2C(=N)SCC2=O)cc1`, with 15.8 µg/mL (≈ 63.6 µM); and `O=C(O)c1ccccc1NC(=O)C1C2CCC(O2)C1C(=O)O` (stereo unspecified), with above 45.8 µg/mL. Then `COc1cc2ccccc2cc1C(=O)Nc1ccccc1C`, with below 0.6 µg/mL; and `Cc1cc2c(cc1S(=O)(=O)N(C)c1ccccc1)n(C)c(=O)n2C`, with above 51.8 µg/mL. Then `CCC(CC)C(=O)Nc1ccncc1`, with 10.9 µg/mL (≈ 56.7 µM); and `CCN1CCN(c2ccc(S(=O)(=O)N3CCOCC3)cc2NC(=O)c2cccc([N+](=O)[O-])c2)CC1`, with above 75.5 µg/mL; and `CCC1(Cc2ccccc2)NC(=O)c2ccccc2O1` (stereo unspecified), with 36.5 µg/mL (≈ 137 µM). For `CC(=O)c1c(C)[nH]c(C(=O)NCc2ccccc2F)c1C`, the kinetic solubility amounted to 41.6 µg/mL (≈ 144 µM). This solubility kinetic and that of the compound before are within 1.5-fold of each other. Compound `CCCC(=O)Oc1ccc(C2NC(=O)c3ccccc3O2)cc1` (stereo unspecified) had a kinetic solubility below 0.7 µg/mL. Consider `CC1CCN(C(=O)COC(=O)Cn2cnc3ccccc32)CC1`, for which the solubility (kinetic) is above 47.3 µg/mL. Next, `O=C(Cc1c(F)cccc1Cl)OCC(=O)c1ccc[nH]1`: 26.1 µg/mL (≈ 88.3 µM). Then `Fc1ccc(-c2nc(-c3cnccn3)no2)c(Cl)c1`, with 3.5 µg/mL (≈ 12.7 µM); and `Cc1cccc(C)c1OCC(=O)Nc1ccc2c(c1)OCCO2`, with 23.5 µg/mL (≈ 75 µM). Then `COc1ccc(/C=C2\C(=O)ON=C2c2ccccc2)cc1OC`, with 45.7 µg/mL (≈ 148 µM); and `Cc1cccc(-c2noc(CNC(=O)c3ccc4c(c3)OCO4)n2)c1`, with 2.3 µg/mL (≈ 6.82 µM). On to `CC(C)(CN1CCCC1)NS(=O)(=O)c1ccccc1.Cl`, for which the solubility (kinetic) is above 47.8 µg/mL. Next, `COc1ccc(-c2cc(C(=O)Nc3ccc(OC)cc3OC)no2)cc1`: below 0.4 µg/mL; `CCC(C)[C@H](NC(=O)N1CCC(C)CC1)C(=O)O` (stereo partly specified): above 38.5 µg/mL. Then `CN(C)CCCNc1nc(N)c([N+](=O)[O-])c(NC2CCCCC2)n1`, with above 50.6 µg/mL; and `CN(CC(=O)Nc1ccccc1Cl)C1CCCCC1`, with 14.7 µg/mL (≈ 52.4 µM); and `CC1CN(C(=O)COC(=O)c2ccc(Cl)nc2)CC(C)O1` (stereo unspecified), with 42.3 µg/mL (≈ 135 µM). Then `O=C(Nc1ccc(S(=O)(=O)N2CCOCC2)cc1)C1CC1`, with above 46.6 µg/mL.

The record behind these values is PubChem BioAssay AID1996.
